We go through 2 compounds from patent US20100278730A1, “Non-Invasive Molecular Imaging of Cellular Histone Deacetylase Substrate Using Magnetic Resonance Spectroscopy (MRS) or Positron Emission Tomography (PET)” (priority 2007, published 2010).

Series [1] has as its system PC3 human prostate cancer cells tumor. Description: In vivo detection of HDAC inhibition by MRS in PC3 tumors (Example 3). Also on record: species or system mice. How it is done:
Methods. 5×10^6 PC3 human prostate cancer cells suspended in matrigel were injected subcutaneously in male CD-1 nude mice (n=5). When an average tumor volume of 0.2 cm^3 was reached, mice were separated into 2 groups. The treated group (n=3) was treated daily with 50 mg/kg SAHA intraperitoneally, while the control mice were treated with carrier DMSO. MRS was performed on a 4.7T Biospec (Bruker Biospin, Billerica, Mass.) prior to treatment (day 0) and on days 2 and 7 of treatment, using a 1.5 cm (inner diameter) dual-tuned ^1H/^19F surface coil. […] BLT levels determined by ^19F MRS were normalized to the external reference aaa-trifluorotoluene (TFT) (Sigma-Aldrich Chemical Co., St. Louis, Mo.) in a micro-cell spherical bulb placed at a permanent location relative to the coil and expressed as % of maximum tumor BLT levels in each study. For each mouse and also for average values, a paired t-test of BLT evolution was performed for days 2 and 7 with respect to day 0. ^1H MRS data was analyzed by normalizing the tCho signal either to the total ^1H signal or to the internal water signal.

A short description of series [2]: Toxicity study of Boc-lysine trifluoroacetic acid (BLT) in nude mice. In kind it is in vivo. Conditions: 100 mg/kg BLT i.p. in DMSO on days 1, 8, 15; male nude mice; vs DMSO-treated controls. The protocol:
Rationale: BLT must have no detectable toxic effects at levels that result in an MRS-visible signal in vivo if it were to be used as an imaging agent. To verify this, we monitored the toxicity of 100 mg/kg BLT (˜3 mM plasma concentration), which, based on previously published studies of fluorinated drugs, was expected to result in an MRS-detectable signal. (Hamstra, et al., Mol Ther, 10: 916-928, 2004; McSheehy, et al., Cancer Res, 60: 2122-2127, 2000; Gade, et al., Magn Reson Med, 52: 169-173, 2004; Chung, et al., Clin Cancer Res, 10:3863-3870, 2004; Aboagye, et al., Cancer Res, 58: 4075-4078, 1998).
Methods and Results: Four male nude mice were injected intraperitoneally with 100 mg/kg BLT in 40 μl of DMSO and 4 mice were injected with 40 μl of DMSO alone on days 1, 8, and 15 of the study. The mice were monitored daily for changes in weight, skin and hydration status, activity, behavior, feeding, and neurological status. On day 16, blood samples were collected, and blood counts and hepatic and kidney functions assessed (bilirubin, total protein, aspartate aminotransferase, alanine aminotransferase, creatinine, and blood urea nitrogen). At the end of the study, following animal euthanasia, mice were dissected and tissue samples obtained for histology (hematoxylin-eosin staining).

The subject of series [3] is PC-3 tumor. Description: 19F/31P/1H MRS of PC-3 tumors after BLT injection, with or without SAHA treatment (Example 2). In kind it is in vivo, mice. The protocol:
Methods and Results: PC-3 cells (10^6) were injected into the flank of male nude mice. MR experiments were first performed when tumors were ˜1 cm in diameter. Mice were anesthetized using isoflurane. A 10-mm home-built ^19F surface coil (milled from a polymer-based flexible substrate using a ProtoMat C100/HF (LPKF Laser & Electronics, Wilsonville, Oreg.)) was placed over the tumor, and the animal placed at the center of the magnet. Varacator diodes in the impedance matching circuitry provided a means to match and tune the coil from the console. Following localization, a T2-weighted image of the tumor was recorded using the RARE sequence (TE=45 ms, TR=2 s) via the ^19F surface coil tuned to ^1H. Localized shimming was performed using FASTMAP and achieved ˜20 Hz line width for the water peak. A localized ^1H spectrum was then acquired using a single-voxel PRESS sequence (TE=21 ms, TR=3 s, 96 scans) with VAPOR water suppression. Following retuning of the coil to ^19F, a ‘baseline’ ^19F spectrum was then acquired using a one-pulse sequence (45° flip angle, 300 scans, TR=1 s). A microsphere filled with 20 mM trifluorotoluene (−63.7 ppm) served as an external reference. 100 mg/kg BLT (in 40 μl DMSO) was then injected i.p. and sequential 5-minute ^19F spectra acquired over 90 minutes. The ^19F surface coil was then replaced with a ^31P coil and a spectrum acquired from the tumor region using a one-pulse sequence (30° flip angle, 900 scans, TR=2 s). Adequate SNR was achieved within 30 min.
Following 1 week of treatment, the MR study was repeated.

Series [4] has as its system HDAC activity in rat brain. Description: PET imaging of HDAC activity in rat brain using [18F]-FAHA (Example 6). In kind it is in vivo. Conditions: SAHA 50 mg/kg i.p. 1 hour prior; p<0.01 unpaired t test. How it is done:
Methods: [^18F]-FAHA was synthesized according to the methods developed in our laboratory in high specific activity. Imaging studies with [^18F]-FAHA were conducted in five rats using a PET scanner under isoflurane inhalation anesthesia. The animals were injected intravenously with 37 MBq of [^18F]-FAHA and dynamic scanning PET (0-60 min) was performed. During the imaging session, the rats were anesthetized with 1-1.5 vol % isoflurane/oxygen inhalation and continuously heated with a heating lamp. Two days after the initial study, another PET imaging was performed with [^18F]-FAHA using an […] (SAHA). Each animal was given SAHA (50 mg/kg), intraperitoneally 1 hour prior to injection of the [^18F]-FAHA.
In Table 6, “baseline” refers to brain uptake of FAHA without blocking by SAHA.

For series [5], the system named is MB435 tumor xenografts. Description: PET of [18F]-FAHA in MB435 tumor xenograft-bearing nude rats (second Example 4). Conditions: blocking study, SAHA 50 mg/kg i.p. 1 hour prior; p<0.01 unpaired t test. Format: in vivo, rat. The protocol:
Methods: [^18F]-FAHA was synthesized with high specific activity according to a method developed at M. D. Anderson Cancer Center. Human breast cancer cells, cell line MB435, grown as described in Example 3, were used to grow tumor xenografts in nude rats. Ten million cancer cells were injected subcutaneously in the neck area of six nude rats. When tumors were 1 cm in diameter, animals were anesthetized, injected with [^18F]-FAHA (37 MBq) and PET imaging was performed (dynamic) up to 60 min post-injection. Two days after the initial imaging, another PET imaging with [^18F]-FAHA was performed using a […] (SAHA). The animals were given SAHA (50 mg/kg) intraperitoneally 1 hour prior to injection of the radiotracer.

Consider `CC(C)(C)OC(=O)N[C@@H](CCCCN)C(=O)O.O=C(O)C(F)(F)F` [BLT, Boc-lysine trifluoroacetic acid], for which the “19F MRS of BLT as indicator of HDAC inhibition” value in series [1] (PC3 tumors, SAHA 50 mg/kg daily i.p., days 0, 2, 7, 100 mg/kg BLT i.p.) is recorded as “detects HDAC inhibition prior to effect on tumor size”. Further, the “toxicity (weight, behavior, blood counts, hepatic and kidney functions, histology)” value in series [2] was “no indication of significant toxicity was observed”. The “decrease in tumor BLT levels” value in series [3] (first 50 min following BLT injection i.p., PC-3 tumor, 19F MRS) is roughly 25%.

`O=C(CCCCCCC(=O)Nc1ccccc1)NO` [SAHA, suberoylanilide hydroxamic acid, reference compound]: in series [4], the “effect on uptake of [18F]-FAHA inside brain” value is reported as “significantly inhibited”. Also, the “phosphomonoesters and choline-containing metabolites (31P MRS and 1H MRS)” value in series [1] (PC3 tumors following SAHA treatment 50 mg/kg daily i.p.) was “transient increase”. In addition, the tumor growth result in series [3] (50 mg/kg SAHA in DMSO daily i.p., PC-3 tumor, preliminary data) is reported as “inhibition of tumor growth”. For the same compound, in series [3] (1 week of 50 mg/kg SAHA daily i.p. vs DMSO control and pre-treatment), the “BLT levels in the tumor in vivo (19F MRS, normalized to tumor size)” value is on record as “higher”. In addition, in series [5], the “effect on uptake of [18F]-FAHA inside tumor” value was “significantly inhibited”.
